Source: US20230322770A1, “SUBSTITUTED HETEROARYL COMPOUNDS USEFUL AS INHIBITORS OF TLR9” (BRISTOL-MYERS SQUIBB COMPANY, priority 2020, published 2023)

Tests used:
Format in all cases: cell-based
human TLR9 = molecular target: T1, human TLR9 (Homo sapiens, UniProt Q9NR96); assay: TLR9 inhibition reporter assay (HEK-Blue cells, SEAP reporter); conditions: HEK-Blue cells overexpressing human TLR9; stimulated with ODN2006 5 nM; SEAP after 22 hour incubation
T1 construct: host or cells: HEK-Blue cells (HEK293-derived reporter line)
T1 sequence (Q9NR96 26-1032): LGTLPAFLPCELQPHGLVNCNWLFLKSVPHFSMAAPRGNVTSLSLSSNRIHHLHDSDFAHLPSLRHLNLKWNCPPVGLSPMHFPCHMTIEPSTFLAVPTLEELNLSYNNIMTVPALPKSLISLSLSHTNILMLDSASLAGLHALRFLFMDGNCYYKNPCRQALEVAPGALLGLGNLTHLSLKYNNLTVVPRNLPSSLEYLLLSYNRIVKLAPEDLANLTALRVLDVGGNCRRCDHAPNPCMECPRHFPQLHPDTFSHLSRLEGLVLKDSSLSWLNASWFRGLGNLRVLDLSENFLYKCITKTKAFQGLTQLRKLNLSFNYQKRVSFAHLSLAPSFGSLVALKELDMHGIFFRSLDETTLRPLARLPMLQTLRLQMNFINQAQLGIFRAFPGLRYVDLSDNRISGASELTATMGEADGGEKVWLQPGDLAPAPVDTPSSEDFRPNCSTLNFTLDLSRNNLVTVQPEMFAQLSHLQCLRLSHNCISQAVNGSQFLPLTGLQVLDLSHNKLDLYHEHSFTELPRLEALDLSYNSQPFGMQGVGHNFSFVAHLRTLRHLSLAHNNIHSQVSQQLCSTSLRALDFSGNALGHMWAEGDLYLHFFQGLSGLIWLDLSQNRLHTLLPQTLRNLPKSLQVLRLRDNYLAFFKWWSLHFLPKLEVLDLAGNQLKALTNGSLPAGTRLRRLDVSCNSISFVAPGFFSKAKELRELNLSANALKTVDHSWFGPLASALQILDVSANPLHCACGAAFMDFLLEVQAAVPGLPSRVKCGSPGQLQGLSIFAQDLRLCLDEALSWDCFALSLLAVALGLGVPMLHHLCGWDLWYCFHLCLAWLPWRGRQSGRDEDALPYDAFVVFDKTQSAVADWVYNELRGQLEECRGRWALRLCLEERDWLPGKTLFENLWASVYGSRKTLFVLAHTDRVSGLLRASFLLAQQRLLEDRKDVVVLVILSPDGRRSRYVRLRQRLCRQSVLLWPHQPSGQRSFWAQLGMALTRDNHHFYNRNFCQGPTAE
Method: (§1) TLR7/8/9 Inhibition Reporter Assays
(§2) HEK-Blue™-cells (Invivogen) overexpressing human TLR7, TLR8 or TLR9 receptors were used for screening inhibitors of these receptors using an inducible SEAP (secreted embryonic alkaline phosphatase) reporter gene under the control of the IFN-β minimal promoter fused to five NF-κB and AP-1-binding sites. Briefly, cells are seeded into Greiner 384 well plates (15000 cells per well for TLR7, 20,000 for TLR8 and 25,000 for TLR9) and then treated with test compounds in DMSO to yield a final dose response concentration range of 0.05 nM-50 μM. After a 30 minute compound pre-treatment at room temperature, the cells are then stimulated with a TLR7 ligand (gardiquimod at a final concentration of 7.5 μM), TLR8 ligand (R848 at a final concentration of 15.9 μM) or TLR9 ligand (ODN2006 at a final concentration of 5 nM) to activate NF-κB and AP-1 which induce the production of SEAP. After a 22 hour incubation at 37° C., 5% CO2, SEAP levels are determined with the addition of HEK-Blue™ Detection reagent (Invivogen), a cell culture medium that allows for detection of SEAP, according to manufacturer's specifications. The percent inhibition is determined as the % reduction in the HEK-Blue signal present in wells treated with agonist plus DMSO alone compared to wells treated with a known inhibitor.

human TLR7 = molecular target: T2, human TLR7 (Homo sapiens, UniProt Q9NYK1); assay: TLR7 inhibition reporter assay (HEK-Blue cells, SEAP reporter); conditions: HEK-Blue cells overexpressing human TLR7; stimulated with gardiquimod 7.5 μM; SEAP after 22 hour incubation
T2 construct: host or cells: HEK-Blue cells (HEK293-derived reporter line)
T2 sequence (Q9NYK1 27-1049): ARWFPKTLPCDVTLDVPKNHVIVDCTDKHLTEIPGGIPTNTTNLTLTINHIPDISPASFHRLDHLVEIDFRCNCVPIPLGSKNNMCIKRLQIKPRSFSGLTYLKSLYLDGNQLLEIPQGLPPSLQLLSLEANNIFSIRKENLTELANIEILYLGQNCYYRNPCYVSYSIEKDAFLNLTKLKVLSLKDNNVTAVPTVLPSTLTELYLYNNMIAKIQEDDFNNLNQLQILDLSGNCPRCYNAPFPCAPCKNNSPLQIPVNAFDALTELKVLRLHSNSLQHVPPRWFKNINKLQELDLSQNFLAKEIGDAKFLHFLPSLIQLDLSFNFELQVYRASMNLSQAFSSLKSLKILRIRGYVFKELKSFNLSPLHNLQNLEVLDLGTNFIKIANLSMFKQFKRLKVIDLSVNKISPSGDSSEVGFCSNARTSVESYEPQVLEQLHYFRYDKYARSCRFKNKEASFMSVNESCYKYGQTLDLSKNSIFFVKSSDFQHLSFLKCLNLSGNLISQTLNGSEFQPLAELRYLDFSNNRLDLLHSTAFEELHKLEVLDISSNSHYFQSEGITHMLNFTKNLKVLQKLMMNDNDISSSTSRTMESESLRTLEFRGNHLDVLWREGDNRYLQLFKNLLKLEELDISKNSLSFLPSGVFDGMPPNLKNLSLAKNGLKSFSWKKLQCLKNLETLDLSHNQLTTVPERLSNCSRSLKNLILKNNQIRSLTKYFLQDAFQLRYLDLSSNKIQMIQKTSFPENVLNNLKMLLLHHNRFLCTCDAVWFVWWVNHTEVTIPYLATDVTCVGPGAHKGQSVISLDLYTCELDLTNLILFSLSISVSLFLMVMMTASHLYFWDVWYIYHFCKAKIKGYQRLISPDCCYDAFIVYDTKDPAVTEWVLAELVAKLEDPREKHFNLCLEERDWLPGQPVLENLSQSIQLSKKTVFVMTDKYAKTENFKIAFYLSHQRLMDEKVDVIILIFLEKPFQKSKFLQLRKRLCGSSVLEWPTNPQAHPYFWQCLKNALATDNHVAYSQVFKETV
Method: as §1, §2

human TLR8 = molecular target: T3, human TLR8 (Homo sapiens, UniProt Q9NR97); assay: TLR8 inhibition reporter assay (HEK-Blue cells, SEAP reporter); conditions: HEK-Blue cells overexpressing human TLR8; stimulated with R848 15.9 μM; SEAP after 22 hour incubation
T3 construct: host or cells: HEK-Blue cells (HEK293-derived reporter line)
T3 sequence (Q9NR97 27-1041): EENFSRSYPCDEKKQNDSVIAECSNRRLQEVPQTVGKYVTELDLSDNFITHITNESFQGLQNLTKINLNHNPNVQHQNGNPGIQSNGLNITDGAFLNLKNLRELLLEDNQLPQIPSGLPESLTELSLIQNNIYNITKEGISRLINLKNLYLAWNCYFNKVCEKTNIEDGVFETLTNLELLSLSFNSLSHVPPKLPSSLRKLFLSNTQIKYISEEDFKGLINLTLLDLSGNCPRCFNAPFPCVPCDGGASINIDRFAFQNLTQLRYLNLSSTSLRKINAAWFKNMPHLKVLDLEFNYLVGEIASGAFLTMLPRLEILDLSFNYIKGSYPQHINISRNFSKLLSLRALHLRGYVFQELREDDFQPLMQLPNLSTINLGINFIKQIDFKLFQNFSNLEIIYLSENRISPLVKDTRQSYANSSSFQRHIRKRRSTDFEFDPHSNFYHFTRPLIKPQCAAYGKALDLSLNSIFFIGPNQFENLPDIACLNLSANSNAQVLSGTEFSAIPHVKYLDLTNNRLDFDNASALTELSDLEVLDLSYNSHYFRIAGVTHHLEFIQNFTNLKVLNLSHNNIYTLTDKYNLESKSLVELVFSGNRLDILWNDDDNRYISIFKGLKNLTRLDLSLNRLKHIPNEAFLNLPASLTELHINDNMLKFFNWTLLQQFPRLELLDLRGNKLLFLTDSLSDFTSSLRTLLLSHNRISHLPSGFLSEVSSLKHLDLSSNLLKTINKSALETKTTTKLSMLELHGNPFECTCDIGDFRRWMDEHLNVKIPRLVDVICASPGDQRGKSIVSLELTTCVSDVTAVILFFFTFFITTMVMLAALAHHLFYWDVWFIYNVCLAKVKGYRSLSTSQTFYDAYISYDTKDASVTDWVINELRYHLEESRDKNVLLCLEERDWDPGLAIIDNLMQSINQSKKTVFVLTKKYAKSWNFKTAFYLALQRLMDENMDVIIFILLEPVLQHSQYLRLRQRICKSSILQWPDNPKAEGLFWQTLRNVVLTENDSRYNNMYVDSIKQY
Method: as §1, §2

| SMILES | IC50 (human TLR9) | IC50 (human TLR7) | IC50 (human TLR8) |
| --- | --- | --- | --- |
| Cn1c(-c2ccc(S(C)(=O)=O)cc2F)cc2ncc(-c3ccc(N4CCN5CCCC5C4)cc3)cc21 (stereo not shown) [Example 42] | 0.436 µM | > 50 µM | 2.8 µM |
| Cn1c(-c2ccc(S(C)(=O)=O)cc2)cc2ncc(-c3ccc(CN4CCC(C)(O)CC4)cc3)cc21 [Example 22] | 0.339 µM | 7.9 µM | 14.6 µM |
| CC(C)N1CCN(c2ccc(-c3cnc4cc(-c5ccc(S(C)(=O)=O)cc5)n(C)c4c3)cc2)[C@@H](C)C1 [Example 30] | 0.576 µM | 4.8 µM | 5.3 µM |
| CC(C)N1C[C@H](C)N(c2ccc(-c3cnc4cc(-c5ccc(S(C)(=O)=O)cc5)n(C)c4c3)cc2)[C@@H](C)C1 [Example 31] | 0.48 µM | 2.5 µM | 4.5 µM |
| Cn1c(-c2ccc(S(C)(=O)=O)cc2)cc2ncc(-c3ccc(N4CCN5CCCC5C4)cc3)cc21 (stereo not shown) [Example 27] | 0.275 µM | – | – |
| CC(C)N1CCN(c2ccc(-c3cnc4cc(-c5ccc(S(C)(=O)=O)cc5)n(C)c4c3)cc2)C[C@@H]1C [Example 29] | 0.722 µM | 3.3 µM | 2.3 µM |
| Cn1c(-c2ccc(S(C)(=O)=O)cc2F)cc2ncc(-c3ccc(N4CCN(C5CC5)CC4)cc3)cc21 [Example 45] | > 50 µM | – | – |
| CC(C)N1C[C@@H](C)N(c2ccc(-c3cnc4cc(-c5ccc(S(C)(=O)=O)cc5)n(C)c4c3)cc2)[C@@H](C)C1 [Example 33] | 0.383 µM | 3.8 µM | 4.2 µM |
| CN(C)S(=O)(=O)c1cccc(-c2cc3ncc(-c4ccc(N5CCN(C6CC6)CC5)cc4)cc3n2C)c1 [Example 44] | 0.7 µM | – | – |

Now those with a lower IC50 (human TLR9), led by results:

| IC50 (human TLR9) | IC50 (human TLR7) | IC50 (human TLR8) | SMILES |
| --- | --- | --- | --- |
| 0.206 µM | 9.6 µM | 8.1 µM | Cn1c(-c2ccc(S(C)(=O)=O)cc2)cc2ncc(-c3ccc(CN4CCN(CC(C)(C)O)CC4)cc3)cc21 [Example 21] |
| 0.094 µM | 7 µM | 7.2 µM | COc1ccc(-c2cc3ncc(-c4ccc(N5CCN(C(C)C)CC5)cc4)cc3n2C)cc1OC [Example 1, 2-(3,4-Dimethoxyphenyl)-6-(4-(4-isopropylpiperazin-1-yl)phenyl)-1-methyl-1H-pyrrolo[3,2-b]pyridine] |
| 0.139 µM | – | – | CC(C)CN1CCN(c2ccc(-c3cnc4cc(-c5ccc(S(C)(=O)=O)cc5)n(C)c4c3)cc2)CC1 [Example 6, 6-(4-(4-Isobutylpiperazin-1-yl)phenyl)-1-methyl-2-(4-(methylsulfonyl)phenyl)-1H-pyrrolo[3,2-b]pyridine] |
| 0.243 µM | 11.4 µM | 15.1 µM | CC(C)N1CCN(c2ccc(-c3cnc4cc(-c5ccc(S(C)(=O)=O)cc5)n(C)c4c3)cc2)C[C@H]1C [Example 32] |
| 0.018 µM | 9.7 µM | 11.1 µM | CC(C)N1CCN(c2ccc(-c3cc4nc(-c5ccc(S(C)(=O)=O)cc5)cc-4n(C)c3)cc2)CC1 [Example 3, 6-(4-(4-isopropylpiperazin-1-yl)phenyl)-4-methyl-2-(4-(methylsulfonyl)phenyl)-4H-pyrrolo[3,2-b]pyridine] |
| 0.014 µM | 4.9 µM | > 50 µM | CN(C)C1CCN(Cc2ccc(-c3cnc4cc(-c5ccc(S(C)(=O)=O)cc5)n(C)c4c3)cc2)CC1 [Example 24] |
| 0.212 µM | > 50 µM | 43.8 µM | CCN1CCN(Cc2ccc(-c3cnc4cc(-c5ccc(S(C)(=O)=O)cc5)n(C)c4c3)cc2)CC1 [Example 25] |
| 0.236 µM | 3.2 µM | 5 µM | CC(C)N1CCN(c2ccc(-c3cnc4cc(-c5ccc(S(C)(=O)=O)cc5)n(C)c4c3)cc2)[C@H](C)C1 [Example 28] |
| 0.091 µM | – | – | CC(C)N1[C@H](C)CN(c2ccc(-c3cnc4cc(-c5ccc(S(C)(=O)=O)cc5)n(C)c4c3)cc2)C[C@H]1C [Example 35] |
| 0.256 µM | – | – | COc1ccc(-c2cc3ncc(-c4ccc(N5CCN(CC(C)(C)O)CC5)cc4)cc3n2C)cc1OC [Example 4, 1-(4-(4-(2-(3,4-Dimethoxyphenyl)-1-methyl-1H-pyrrolo[3,2-b]pyridin-6-yl)phenyl)piperazin-1-yl)-2-methylpropan-2-ol] |
| 0.094 µM | – | – | CC(C)N1C2CCC1CN(c1ccc(-c3cnc4cc(-c5ccc(S(C)(=O)=O)cc5)n(C)c4c3)cc1)C2 [Example 26] |
